The record followed here is patent publication US11034650B2, “Compounds useful for treating a Mannheimia haemolytica or Histophilus somni infection” (Intervet Inc., priority 2016, dated 2021).

Structures are written as SMILES. Converted amounts (≈) assume the structure as drawn. Where only a bound is given, the exact number is not on record here.

Type in all cases: cell-based
In test [1] the test system is Mannheimia haemolytica MH 6357 (M7/2, reference strain, cattle infection strain). In words: MIC, broth-microdilution (CLSI VET01-A4), strain MH 6357. To be noted: Mannheimia haemolytica strain MH 6357, broth-microdilution; unit assumed. Summed up: (§1)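 Visual endpoint: the first dilution of a doubling series lacking turbidity gives the MIC; CLSI VET01-S3 interpretive rules applied.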
Background: In broth dilution the organism is exposed to a series of concentrations in liquid medium.

For test [2], the system named is Mannheimia haemolytica MH 6374 (ATCC 33396, reference strain). Briefly: MIC, broth-microdilution (CLSI VET01-A4), strain MH 6374. The note with it: Mannheimia haemolytica strain MH 6374, broth-microdilution; unit assumed. Summed up:
as §1

In test [3] the test system is Mannheimia haemolytica MH 10720 (154, BRD field isolate). In words: MIC, broth-microdilution (CLSI VET01-A4), strain MH 10720. The note with it: Mannheimia haemolytica strain MH 10720, broth-microdilution; unit assumed. Summed up:
as §1

The subject of test [4] is Mannheimia haemolytica MH 12587 (1071, BRD field isolate, macrolide-resistance: erm+, E+). Briefly: MIC, broth-microdilution (CLSI VET01-A4), strain MH 12587. The note with it: Mannheimia haemolytica strain MH 12587, broth-microdilution; unit assumed. Summed up: as §1
Test [5] has as its system Mannheimia haemolytica MH 13065 (XB0446-6003.9, BRD field isolate). In words: MIC, broth-microdilution (CLSI VET01-A4), strain MH 13065. To be noted: Mannheimia haemolytica strain MH 13065, broth-microdilution; unit assumed. Summed up:
as §1

The subject of test [6] is Mannheimia haemolytica MH 13093 (XB0472-6014.1, BRD field isolate). In words: MIC, broth-microdilution (CLSI VET01-A4), strain MH 13093. The note with it: Mannheimia haemolytica strain MH 13093, broth-microdilution; unit assumed. Summed up: as §1
Test [7] concerns Pasteurella multocida PM 6267 (P 2225 (L386), reference strain, mouse infection strain). In words: MIC, broth-microdilution (CLSI VET01-A4), strain PM 6267. To be noted: Pasteurella multocida strain PM 6267, broth-microdilution; unit assumed. Summed up:
as §1

Test [8] concerns Pasteurella multocida PM 6391 (ATCC 43137, reference strain). In words: MIC, broth-microdilution (CLSI VET01-A4), strain PM 6391. To be noted: Pasteurella multocida strain PM 6391, broth-microdilution; unit assumed. Summed up: as §1
In test [9] the test system is Pasteurella multocida PM 10775 (080130003051, BRD field isolate). Briefly: MIC, broth-microdilution (CLSI VET01-A4), strain PM 10775. The note with it: Pasteurella multocida strain PM 10775, broth-microdilution; unit assumed. Summed up:
as §1

Test [10] concerns Pasteurella multocida PM 12080 (IV102277-0093, BRD field isolate). Briefly: MIC, broth-microdilution (CLSI VET01-A4), strain PM 12080. The note with it: Pasteurella multocida strain PM 12080, broth-microdilution; unit assumed. Summed up:
as §1

Take `CON=C(C)[C@H](NC(=O)c1ccc(C#Cc2ccc(CNCc3nccs3)cc2)cc1)C(=O)NO` [Compound 395]: the MIC MH 6357 in [1] amounted to 0.4 µg/mL (≈ 0.814 µM). Also, in test [2], the MIC MH 6374 amounted to 0.8 µg/mL (≈ 1.63 µM). In [3], this compound registered an MIC MH 10720 of 0.4 µg/mL (≈ 0.814 µM). For the same compound, in [4], the MIC MH 12587 worked out at 0.2 µg/mL (≈ 0.407 µM). The MIC MH 13065 in test [5] came out at 0.8 µg/mL (≈ 1.63 µM). This compound also registered an MIC MH 13093 in [6] of 0.8 µg/mL (≈ 1.63 µM). In test [7], this compound showed an MIC PM 6267 of 3.1 µg/mL (≈ 6.31 µM). In test [8], this compound yielded an MIC PM 6391 not above 0.1 µg/mL. Moreover, the MIC PM 10775 in [9] was 0.2 µg/mL (≈ 0.407 µM). This compound also displayed an MIC PM 12080 in test [10] of 0.2 µg/mL (≈ 0.407 µM).
`CC(=O)[C@H](NC(=O)c1ccc(C#Cc2ccc(CNC3CC3)cc2)cc1)C(=O)NO` [Compound 396] yielded an MIC MH 6357 in test [1] of 1.6 µg/mL (≈ 3.95 µM). Also, the MIC MH 6374 in test [2] amounted to 1.6 µg/mL (≈ 3.95 µM). The same compound returned an MIC MH 10720 in [3] of 1.6 µg/mL (≈ 3.95 µM). Further, the MIC MH 12587 in test [4] amounted to 0.4 µg/mL (≈ 0.987 µM). Further, in test [5], the MIC MH 13065 was 3.1 µg/mL (≈ 7.65 µM). In [6], this compound gave an MIC MH 13093 of 3.1 µg/mL (≈ 7.65 µM). In [7], this compound returned an MIC PM 6267 of 12.5 µg/mL (≈ 30.8 µM). In [8], the MIC PM 6391 is not above 0.1 µg/mL. In test [9], the MIC PM 10775 is 0.8 µg/mL (≈ 1.97 µM). Moreover, the MIC PM 12080 in [10] is 0.4 µg/mL (≈ 0.987 µM).
`COCCNCc1ccc(C#Cc2ccc(C(=O)N[C@@H](C(C)=O)C(=O)NO)cc2)cc1` [Compound 398] showed an MIC MH 6357 in [1] of 6.3 µg/mL (≈ 14.9 µM). In [2], the MIC MH 6374 was found to be 6.3 µg/mL (≈ 14.9 µM). The compound also registered an MIC MH 10720 in test [3] of 6.3 µg/mL (≈ 14.9 µM). Also, the MIC MH 12587 in test [4] was found to be 1.6 µg/mL (≈ 3.78 µM). In [5], this compound gave an MIC MH 13065 of 12.5 µg/mL (≈ 29.5 µM). Also, in [6], the MIC MH 13093 was 25 µg/mL (≈ 59 µM). Also, the MIC PM 6267 in test [7] was 25 µg/mL (≈ 59 µM). Also, the MIC PM 6391 in test [8] stood at 0.2 µg/mL (≈ 0.472 µM). In addition, the MIC PM 10775 in [9] turned out to be 3.1 µg/mL (≈ 7.32 µM). The compound further yielded an MIC PM 12080 in [10] of 1.6 µg/mL (≈ 3.78 µM).
As to `CC(=O)[C@H](NC(=O)c1ccc(C#Cc2ccc(CN3CCOCC3)cc2)cc1)C(=O)NO` [Compound 399], the MIC MH 6357 in [1] stood at 3.1 µg/mL (≈ 7.12 µM). The same compound displayed an MIC MH 6374 in [2] of 6.3 µg/mL (≈ 14.5 µM). The compound further gave an MIC MH 10720 in [3] of 1.6 µg/mL (≈ 3.67 µM). The compound also registered an MIC MH 12587 in test [4] of 1.6 µg/mL (≈ 3.67 µM). In test [5], this compound showed an MIC MH 13065 of 6.3 µg/mL (≈ 14.5 µM). The compound further gave an MIC MH 13093 in [6] of 6.3 µg/mL (≈ 14.5 µM). The MIC PM 6267 in test [7] was 25 µg/mL (≈ 57.4 µM). Moreover, the MIC PM 6391 in [8] is not above 0.1 µg/mL. This compound also registered an MIC PM 10775 in [9] of 0.8 µg/mL (≈ 1.84 µM). The compound also returned an MIC PM 12080 in [10] of 0.4 µg/mL (≈ 0.919 µM).
In turn, `CC(=O)C(NC(=O)c1ccc(C#Cc2ccc(CNCc3ccccc3)cc2)cc1)C(=O)NO` (stereo not shown) [Compound 400] gave an MIC MH 6357 in test [1] of 0.8 µg/mL (≈ 1.76 µM). The compound further returned an MIC MH 6374 in test [2] of 1.6 µg/mL (≈ 3.51 µM). In test [3], this compound came in with an MIC MH 10720 of 1.6 µg/mL (≈ 3.51 µM). In [4], this compound gave an MIC MH 12587 of 0.2 µg/mL (≈ 0.439 µM). In [5], this compound gave an MIC MH 13065 of 1.6 µg/mL (≈ 3.51 µM). Moreover, in [6], the MIC MH 13093 was 1.6 µg/mL (≈ 3.51 µM). Further, the MIC PM 6267 in test [7] was 3.1 µg/mL (≈ 6.81 µM). In addition, the MIC PM 6391 in test [8] is not above 0.1 µg/mL. In test [9], this compound gave an MIC PM 10775 of 0.8 µg/mL (≈ 1.76 µM). Besides, the MIC PM 12080 in test [10] turned out to be 0.4 µg/mL (≈ 0.878 µM).
On to `COc1ccc(CNCc2ccc(C#Cc3ccc(C(=O)N[C@@H](C(C)=O)C(=O)NO)cc3)cc2)cc1` [Compound 401], for which, in test [1], the MIC MH 6357 was 1.6 µg/mL (≈ 3.3 µM). Moreover, the MIC MH 6374 in test [2] came to 1.6 µg/mL (≈ 3.3 µM). The MIC MH 10720 in test [3] turned out to be 3.1 µg/mL (≈ 6.38 µM). The MIC MH 12587 in [4] was determined as 0.4 µg/mL (≈ 0.824 µM). The compound also returned an MIC MH 13065 in test [5] of 1.6 µg/mL (≈ 3.3 µM). The MIC MH 13093 in test [6] was 1.6 µg/mL (≈ 3.3 µM). In addition, in test [7], the MIC PM 6267 turned out to be 6.3 µg/mL (≈ 13 µM). This compound gave an MIC PM 6391 in [8] of 0.2 µg/mL (≈ 0.412 µM). This compound also displayed an MIC PM 10775 in [9] of 1.6 µg/mL (≈ 3.3 µM). In test [10], this compound yielded an MIC PM 12080 of 0.8 µg/mL (≈ 1.65 µM).
The compound `CC(=O)C(NC(=O)c1ccc(C#Cc2ccc(CNCc3ccncc3)cc2)cc1)C(=O)NO` (stereo not shown) [Compound 402] yielded an MIC MH 6357 in [1] of 6.3 µg/mL (≈ 13.8 µM). For the same compound, the MIC MH 6374 in test [2] was 12.5 µg/mL (≈ 27.4 µM). Also, in test [3], the MIC MH 10720 is 6.3 µg/mL (≈ 13.8 µM). For the same compound, in test [4], the MIC MH 12587 was 1.6 µg/mL (≈ 3.5 µM). In addition, the MIC MH 13065 in [5] was found to be 6.3 µg/mL (≈ 13.8 µM). Moreover, the MIC MH 13093 in test [6] is 6.3 µg/mL (≈ 13.8 µM). The MIC PM 6267 in test [7] was found to be 50 µg/mL (≈ 110 µM). This compound also showed an MIC PM 6391 in [8] of 0.8 µg/mL (≈ 1.75 µM). This compound also had an MIC PM 10775 in [9] of 3.1 µg/mL (≈ 6.79 µM). The compound also displayed an MIC PM 12080 in test [10] of 1.6 µg/mL (≈ 3.5 µM).
